Experiment [1] deals with early alcohol-induced liver injury. The source says: (§1) Animals and Treatments. Female Wistar rats weighing between 200 and 275 g were fed ad libitum continuously for up to 4 weeks a liquid diet (Dyets, Bethlehem, Pa. #710034) in which 35% of the calories were from corn oil, […], 5% were from vitamins and minerals, 11% were from maltose-dextrin, and 36% were from ethanol. An isocaloric maltose-dextrin diet (Dyets, #710270) was used for control. Rats were given a single dose of ethanol (5 g/kg body weight intragastrically) using an 18-gauge oral biomedical device (Popper & Sons, Inc., New Hyde Park, N.Y.) diluted in PBS (pH 7.2; GIBCO Laboratories Life Technologies Inc., Grand Island, N.Y.) every 24 hours. Control animals were gavaged with PBS alone. Either histamine dihydrochloride (0.5 mg/kg or 5.0 mg/kg; Sigma Chemical Co., St. Louis, Mo.) or vehicle (PBS, pH 7.4; GIBCO Laboratories Life Technologies Inc., Grand Island, N.Y.) was administered by subcutaneous injection twice daily for 4 weeks. Body weights of each rat were measured daily. Rats were housed in a pathogen-free facility and the institutional animal care and use committee approved the surgical procedures used in this study.
Pathological Evaluation. After 2 and 4 weeks of ethanol treatment, livers were formalin fixed, embedded in paraffin, and stained with hematoxylin and eosin to assess steatosis, inflammation, and necrosis. Liver pathology was scored in a blinded manner by an outside expert as follows:
1. Degree of steatosis, score 0-4 (based on % of hepatocytes containing lipid)
2. Degree of inflammatory cell infiltration, score 0-4
3. Degree of degeneration and necrosis, score 0-4
The points for each grade of histological evaluation were compiled into a total score for each liver.
Severity scores for each finding in each group were summed and then divided by the number of animals evaluated per group. The groups were assigned scores as follows: None=0; […].

The conditions of experiment [2]: both histamine treated groups versus ethanol alone treated group.
Description: as §1

Experiment [3] deals with early alcohol-induced liver injury.
Description: as §1
The source holds these as a separate data set.

The test system of experiment [4] is CD3+T-cells, CD3-/56+ NK-cells and CD3+/56+ NK/T-cells. Conditions: all cell types; induced by autologous monocytes or granulocytes; p<0.001. The source says:
(§2) This example illustrates the effect of histamine on the lymphocytes isolated from human liver. […] All data are the mean±s.e.m. (n=15-30 blood donors).

For experiment [5], the system named is drug-induced liver damage. Conditions: oral tablet with isoniazid, six to twelve months, versus isoniazid alone. The method, then: An individual presenting with tuberculosis is prescribed an oral tablet comprising isoniazid and an effective dose of histamine for a period of six to twelve months. During the treatment period, the patient is monitored by a physician and lab tests to check the status of the patient's liver in response to the medication are performed.

The nature of experiment [6]: Effect of the duration of administration of histamine. The conditions noted are these: administered over longer than about 30 minutes.
Experiment [7] has as its system drug-induced liver damage. The conditions noted are these: daily oral dose of 10 mg, patient on phenytoin three times a day. The protocol: An epileptic taking phenytoin three times a day to control seizures is supplemented with a daily oral dose of 10 mg of histamine dihydrochloride. Prior to supplementation with histamine dihydrochloride, the epileptic experiences liver damage as a consequence of taking phenytoin as confirmed by liver biopsy.

A further experiment has as its system NK-cells. The conditions noted are these: 25 μM hydrogen peroxide, n=8, mean±s.e.m.
Description: as §2

A further experiment deals with NK/T-cells. Conditions: 25 μM hydrogen peroxide, n=8, mean±s.e.m.
Description: as §2

A further experiment relates to T-cells. Conditions: 25 μM hydrogen peroxide, n=8, mean±s.e.m.
Description: as §2

Experiment [8] concerns hepatotoxic effect of comfrey. In words: Catalase supplement in an individual consuming comfrey. The experiment is classed as in vivo, human. The conditions noted are these: 8 mg/day. The protocol: The common herb comfrey can be administered as a poultice or tea drink to as an expectorant, demulcent, and/or tonic. However, consumption of comfrey has been linked to liver damage. In order to minimize the hepatotoxic effect of comfrey, an individual consuming comfrey as an herbal remedy is supplemented with 8 mg/day of catalase.

Experiment [9] has as its system hepatic tissue damage secondary to pancreatitis. Conditions: 100 μg/kg per day over one to two weeks, acute pancreatitis. The protocol: A patient presenting with acute pancreatitis is identified. The patient is administered 100 μg/kg histamine diphosphate per day over a period of one to two weeks. A liver biopsy is performed upon resolution of the pancreatitis.

Where two headings read alike, the source gives them in different places.

As to `NCCc1c[nH]cn1` [Histamine, histamine], in experiment [1] (0.5 mg/kg or 5 mg/kg twice daily s.c., highest dose most effective), the liver injury entry is “blunted liver injury in a dose dependent manner”. The “Histologic Findings in Liver, Mean Group Severity Scores, Total Overall Score” value was determined as 2.00 in experiment [1] (High Histamine (5.0 mg/kg s.c. twice daily), Week 2 of ethanol treatment); 2.57 in [1] (High Histamine (5.0 mg/kg s.c. twice daily), Week 4 of ethanol treatment); 3.33 in [1] (Low Histamine (0.5 mg/kg s.c. twice daily), Week 2 of ethanol treatment); 3.17 in experiment [1] (Low Histamine (0.5 mg/kg s.c. twice daily), Week 4 of ethanol treatment). Further, the “appearance of excised livers” value in experiment [1] (histamine treated, ethanol-fed rats) is listed as “comparative in appearance to livers from the non-ethanol treated group”. In addition, in experiment [2], the “recovery of body weight” value is “recovered their body weights more quickly”. Moreover, the “pathology scores and serum transaminase levels” value in [3] (0.5 mg/kg or 5 mg/kg twice daily s.c.) is on record as “normalization”. Further, the ALT activity result in [3] (preliminary results, ethanol control group 2-3 fold increase) is “somewhat normal ALT activity”. Moreover, the apoptosis of lymphocytes entry in experiment [4] was “significantly prevented”. Besides, the “liver damage by laboratory tests” value in experiment [5] is “no damage to the patient's liver”. Further, the efficacy result in [6] is given as “decreased or lack of efficacy”.

Consider `Cl.Cl.NCCc1c[nH]cn1` [histamine dihydrochloride], for which, in experiment [7], the liver damage result is “further damage to the tissue of the liver is prevented”.

Take `OO` [hydrogen peroxide]: the entries for the “cells that became apoptotic” value with NK-cells, in the experiment on NK/T-cells and in the experiment on T-cells were 65±7%, 78±7% and 35±5%, respectively.

On to catalase, for which the hepatic injury entry in [8] is on record as “No hepatic injury is observed”.

With histamine diphosphate, in experiment [9], the “damage to hepatic tissue (liver biopsy)” value is recorded as “prevents damage to hepatic tissue” and the “incidence of infection associated with pancreatitis” value is “lowers the incidence of infection associated with pancreatitis”.

The values above are taken from patent US20030091553A1 (priority 2001, published 2003).
